Experimental findings from patent US6531496B1 (Bayer Aktiengesellschaft, priority 1999, dated 2003) are described below.

One data set in a line: logP by HPLC (EEC Directive 79/831 Annex V. A8, gradient method). It counts as physicochemical. Particulars: HPLC, gradient method, acetonitrile/0.1% aqueous phosphoric acid; Table 1.
Turning to `O=S1(=O)CSC(Oc2ccc(C3=Nc4ccccc4SC(c4ccccc4)C3)cc2)=N1` (centres unmarked) [Example 73], the logP came out at 4.19.
Still for that read-out and setting: in the case of `CCS(=O)(=O)c1ccc(OC2=NS(=O)(=O)CS2)cc1` [Example 59] it was 1.54; in that of `COc1cc(Cl)cc(OC2=NS(=O)(=O)CS2)c1` [Example 116], 2.61.
On the same count and under the same terms, the result for `CC(C)(C)c1cc(OC2=NS(=O)(=O)CS2)ccc1O` [Example 34] reads 2.66; that for `O=S1(=O)CSC(Oc2ccccc2C(F)(F)F)=N1` [Example 131], 2.49; that for `COC=C(C(=O)OC)c1ccccc1OC1=NS(=O)(=O)CS1` [Example 5], 2.03.
Still for that read-out and setting: the result for `COc1ccc(C(C)=O)c(OC2=NS(=O)(=O)CS2)c1` [Example 75] reads 1.83; that for `CON=C(C1=NOCCO1)c1ccccc1OC1=NS(=O)(=O)CS1` [Example 4], 1.77; that for `O=S1(=O)CSC(Oc2cccc(OCCO)c2)=N1` [Example 91], 1.37.
As for `O=S1(=O)CSC(Oc2ccc(-c3nnco3)cc2)=N1` [Example 35], the logP turned out to be 1.36.
Same read-out and setting: in the case of `Cc1ccc(C)c(OC2=NS(=O)(=O)CS2)c1` [Example 125] it was 2.63; in that of `CC(C)n1nc(-c2ccc(OC3=NS(=O)(=O)CS3)cc2)ccc1=O` [Example 19], 2.15; in that of `CC(=Cc1cccc(OC2=NS(=O)(=O)CS2)c1)[N+](=O)[O-]` (mixture of isomers) [Example 89], 2.46.
The same measure, in the same setting: in the case of `O=S1(=O)CSC(Oc2ccc(C(F)(F)F)cc2)=N1` [Example 132] it was 2.64; in that of `CC(=O)c1cc(OC2=NS(=O)(=O)CS2)cc([N+](=O)[O-])c1` [Example 74], 1.95; in that of `CCON=C(C)c1ccc(OC2=NS(=O)(=O)CS2)c(C)c1` [Example 17], 3.32.
Same read-out and setting: the result for `Cc1cccc(C)c1OC1=NS(=O)(=O)CS1` [Example 123] reads 2.57; that for `O=S1(=O)CSC(Oc2ccc(SC(F)(F)F)cc2)=N1` [Example 135], 3.07; that for `Cc1cc(OC2=NS(=O)(=O)CS2)ccc1Sc1ccc([N+](=O)[O-])cc1C` [Example 84], 3.94.
In turn, `Cc1cnc(Sc2ccc(OC3=NS(=O)(=O)CS3)cc2)nc1C` [Example 63] returned a logP of 2.55.
Compound `CC(O)c1cccc(OC2=NS(=O)(=O)CS2)c1` (racemic) [Example 80] registered a logP of 1.48.
The same measure, in the same setting: in the case of `C=CCON=C(C)c1ccc(OC2=NS(=O)(=O)CS2)cc1` [Example 23] it was 3.15; in that of `O=S1(=O)CSC(Oc2ccc(OC(F)(F)F)cc2)=N1` [Example 124], 2.79.
`Cc1nc(Sc2ccc(OC3=NS(=O)(=O)CS3)cc2)sc1C` [Example 62] had a logP of 2.91.
The compound `O=[N+]([O-])c1ccc(Sc2ccc(OC3=NS(=O)(=O)CS3)cc2)cc1` [Example 121] showed a logP of 3.28.
Same read-out and setting: in the case of `COC(=O)c1ccc(N=Cc2cccc(OC3=NS(=O)(=O)CS3)c2)cc1` [Example 76] it was 1.61; in that of `O=S1(=O)CSC(Oc2cccc(CCO)c2)=N1` [Example 90], 1.39.
The same measure, in the same setting: the result for `CN=Cc1ccc(OC2=NS(=O)(=O)CS2)cc1` [Example 53] reads 2.33; that for `O=S1(=O)CSC(Oc2ccc(-c3nc4ccccc4o3)cc2)=N1` [Example 45], 2.88; that for `COc1cc(C=CN2C(=O)c3ccccc3C2=O)ccc1OC1=NS(=O)(=O)CS1` (mixture of isomers) [Example 79], 2.63.
The same measure, in the same setting: the result for `CSc1ccc(OC2=NS(=O)(=O)CS2)cc1C` [Example 54] reads 2.75.
Compound `CCCCc1oc2ccccc2c1C(=O)c1ccc(OC2=NS(=O)(=O)CS2)cc1` [Example 71] gave a logP of 4.28.
Regarding `N#CCc1ccccc1OC1=NS(=O)(=O)CS1` [Example 8], the logP is listed as 1.68.
In turn, `O=C(Cc1ccccc1)c1ccc(OC2=NS(=O)(=O)CS2)cc1` [Example 65] came in with a logP of 2.76.
On the same count and under the same terms, in the case of `O=S1(=O)CSC(Oc2cccc(C3=NOCCO3)c2)=N1` [Example 56] it was 1.86.
On the same count and under the same terms, in the case of `CON=C(C)c1ccc(OC2=NS(=O)(=O)CS2)c(C)c1` [Example 16] it was 2.88; in that of `N#CSCC(=O)c1ccc(OC2=NS(=O)(=O)CS2)cc1` [Example 55], 2.01.
The same measure, in the same setting: in the case of `O=S1(=O)CSC(Oc2ccc(N=Nc3ccccc3)cc2Cl)=N1` [Example 48] it was 3.96; in that of `COc1ccc(C(=O)c2ccc(OC3=NS(=O)(=O)CS3)cc2)cc1` [Example 66], 2.67; in that of `CCCCCC(O)c1cccc(OC2=NS(=O)(=O)CS2)c1` (racemic) [Example 82], 2.87.
Regarding `CON=C(C)c1cc(OC2=NS(=O)(=O)CS2)ccc1OC1=NS(=O)(=O)CS1` [Example 30], the logP is 2.43.
Take `COc1ccccc1OC1=NS(=O)(=O)CS1` [Example 136]: the log partition coefficient (logP) is on record as 2.02.
Still for that read-out and setting: the result for `O=[N+]([O-])c1ccc(Oc2ccc(OC3=NS(=O)(=O)CS3)cc2)c(Cl)c1` [Example 126] reads 3.33.
For the compound `CCOC(=O)NN=Cc1cccc(OC2=NS(=O)(=O)CS2)c1` [Example 36], the logP is 1.79.
On the same count and under the same terms, in the case of `CON=C(C(N)=O)c1ccccc1OC1=NS(=O)(=O)CS1` [Example 11] it was 1.33; in that of `Cc1cc(OC2=NS(=O)(=O)CS2)ccc1N` [Example 137], 0.83; in that of `O=S1(=O)CSC(Oc2ccc(Br)cc2)=N1` [Example 122], 2.52.
In turn, `COc1cccc(OC2=NS(=O)(=O)CS2)c1OC` [Example 118] returned a logP of 2.12.
Consider `O=S1(=O)CSC(Oc2ccc(OC3=NS(=O)(=O)CS3)cc2)=N1` [Example 88], for which the logP came to 1.88.
Still for that read-out and setting: the result for `COC(=O)c1ccc(OC2=NS(=O)(=O)CS2)cc1C(=O)OC` [Example 32] reads 1.93; that for `CCOC(=O)NN=C(C)c1ccc(OC2=NS(=O)(=O)CS2)cc1` [Example 72], 1.86.
Still for that read-out and setting: the result for `O=[N+]([O-])c1ccc(C=Cc2cccc(OC3=NS(=O)(=O)CS3)c2[N+](=O)[O-])cc1` (mixture of isomers) [Example 85] reads 3.28; that for `O=S1(=O)CSC(Oc2ccc(N=Nc3ccccc3)cc2OC2=NS(=O)(=O)CS2)=N1` [Example 51], 3.06; that for `COc1cc(C=Cc2ccccc2)cc(OC2=NS(=O)(=O)CS2)c1` (mixture of isomers) [Example 87], 3.62.
On the same count and under the same terms, in the case of `COC(=O)c1ccc(N=Cc2ccc(OC3=NS(=O)(=O)CS3)cc2)cc1` [Example 68] it was 1.59; in that of `N#CC(C#N)=Cc1cccc(OC2=NS(=O)(=O)CS2)c1` [Example 38], 1.59.
The compound `O=[N+]([O-])c1ccc(/C=C/c2ccc(OC3=NS(=O)(=O)CS3)cc2)cc1` [Example 50] returned a logP of 3.3.
`CC(C)(C)ON=C(c1ccccc1)c1cccc(OC2=NS(=O)(=O)CS2)c1` [Example 43]: the logP is recorded as 4.4.
On the same count and under the same terms, the result for `N#Cc1cccc(OC2=NS(=O)(=O)CS2)c1` [Example 109] reads 1.69.
Still for that read-out and setting: the result for `O=C(C=Cc1ccccc1)c1ccccc1OC1=NS(=O)(=O)CS1` [Example 130] reads 2.91; that for `O=C(c1ccc(OC2=NS(=O)(=O)CS2)cc1)c1ccc(-c2ccccc2)cc1` [Example 70], 3.72; that for `COc1ccc(OC2=NS(=O)(=O)CS2)cc1OC` [Example 117], 1.82.
Still for that read-out and setting: the result for `Cc1cc(OC2=NS(=O)(=O)CS2)cc(C)c1SC#N` [Example 60] reads 2.55; that for `CC(=NOCc1ccccc1)c1cccc(OC2=NS(=O)(=O)CS2)c1` [Example 25], 3.67; that for `COC(=O)C(=NOCC#N)c1ccccc1OC1=NS(=O)(=O)CS1` [Example 7], 1.7.
Compound `CON=C(C(=O)NOCc1ccccc1)c1ccccc1OC1=NS(=O)(=O)CS1` [Example 10] gave a logP of 2.18.
Same read-out and setting: the result for `O=S1(=O)CSC(Oc2ccccc2CC2=NOCCO2)=N1` [Example 6] reads 1.69; that for `CCC(=O)c1ccccc1OC1=NS(=O)(=O)CS1` [Example 57], 2.04.
The same measure, in the same setting: in the case of `COc1cc(OC2=NS(=O)(=O)CS2)ccc1C(C)=O` [Example 58] it was 1.88.

The data set is the same for the next values; noted with them: Table 2.
As to `O=C1Cc2cc(OC3=NS(=O)(=O)CS3)ccc2O1` [Example 143], the chromatographic logP worked out at 0.48.
Same read-out and setting: in the case of `O=S1(=O)CSC(Oc2cccc3sc4ccccc4c23)=N1` [Example 153] it was 3.31; in that of `Cc1nc2cc(OC3=NS(=O)(=O)CS3)ccc2s1` [Example 148], 1.92; in that of `O=S1(=O)CSC(Oc2ccc3c(c2)CCC3)=N1` [Example 157], 2.8.
On the same count and under the same terms, the result for `CC1(C)Oc2cccc(OC3=NS(=O)(=O)CS3)c2O1` [Example 150] reads 2.6; that for `CN1C(=O)Nc2cc(OC3=NS(=O)(=O)CS3)ccc2SC1=O` [Example 149], 1.55.
Still for that read-out and setting: the result for `O=S1(=O)CSC(Oc2ccc3c(c2)Nc2ccccc2S3(=O)=O)=N1` [Example 154] reads 1.93; that for `O=c1oc2cc(OC3=NS(=O)(=O)CS3)ccc2cc1-c1ccccc1` [Example 147], 2.77; that for `CC1(C)Cc2cccc(OC3=NS(=O)(=O)CS3)c2O1` [Example 158], 2.66.

The data set is the same for the next values; noted with them: Table 4, starting materials of formula (IV).
In turn, `CSC1=NS(=O)(=O)CC(c2ccccc2)S1` (centres unmarked) [IV-6] displayed a chromatographic logP of 2.54.
The same measure, in the same setting: in the case of `CSC1=NS(=O)(=O)C(C)S1` (centres unmarked) [IV-3] it was 1.38; in that of `CSC1=NS(=O)(=O)CC(C)(c2ccccc2)S1` (centres unmarked) [IV-5], 2.65; in that of `CSC1=NS(=O)(=O)C(C(C)C)S1` (centres unmarked) [IV-4], 2.8.

The same data set, now with this note: gradient of acetonitrile/0.1% aqueous phosphoric acid; HPLC, gradient method, acetonitrile/0.1% aqueous phosphoric acid; Table 1.
`CC(C)(CCl)C(=O)Nc1ccc(OC2=NS(=O)(=O)CS2)c(Cl)c1Cl` [Example 13] had a chromatographic logP of 2.98.

A word on the logP: it is a log measure of how a compound divides between an organic and an aqueous phase. Read a high logP as a more lipophilic compound. As a reminder, the chromatographic logP is lipophilicity estimated from chromatographic retention.
